System: ACE
Assay: ACE inhibitory activity (IC50) of the isolated peptides, method not specified
Format: biochemical
Description: The five more apparent peaks in FIG. 4 are designated as A3-B4-C6-D1 to D5. The sequences of them are determined by sequence-determining machine. Five short-chain peptides, Val-Leu-Pro (VLP), Ilu-Leu-Pro (ILP), Val-Leu-Tyr (VLY), Val-Leu-Pro-Pro (VLPP) and Ilu-Leu-Pro-Pro (ILPP) are obtained. The ACE inhibitory activity of them (IC50) is determined.

Substance	IC50
Ilu-Leu-Pro-Pro (ILPP)	172 µM
VLPP [Val-Leu-Pro-Pro]	97 µM

— patent US7335722B2, “Peptides used as angiotensin converting enzyme inhibitor and preparation process thereof” (Food Industry Research and Development Institute, priority 1999, dated 2008)
